Experimental data taken from patent US9353140B2, “BQC-G, a tumor-selective anti-cancer prodrug” (priority 2009, dated 2016).
≈ marks a conversion by molar mass, not a printed value. Where “and” joins values, the source holds several entries; their conditions need not be identical. Equal entries are not always repeated. Where two headings read alike, the source gives them in different places.

Legend:
E. coli β-glucuronidase = E. coli β-glucuronidase (Escherichia coli, UniProt P05804); conditions: for Kcat / Km: enzymatic hydrolysis by E. coli β-glucuronidase
[1] = test system: CL1-5 human lung adenocarcinoma cells; assay: In vitro cytotoxicity (3H-thymidine incorporation), CL1-5; assay type: cell-based
Procedure: CL1-5 cells were exposed to the indicated concentrations of drugs with or without the addition of human serum albumin to 40 mg/ml. […] Bars show the SD.
(§1) The cancer cell lines were from ATCC except for CL1-5 human lung adenocarcinoma which was generous gift from Dr. PC Yang and EJ human bladder carcinoma cells. See Yang, P. C. et al., Characterization of the mucin differentiation in human lung adenocarcinoma cell lines. American journal of respiratory cell and molecular biology 1992, 7, 161-171; Marshall, C. J. et al., Markers of neoplastic transformation in epithelial cell lines derived from human carcinomas. J Natl Cancer Inst 1977, 58, 1743-51.
(§2) 5000-10000 cells/well in 96 well plate were exposed to graded concentration of the compounds for 48 h in the absence or presence of 40 mg/ml HSA. E. coli β-glucuronidase (1 μg/well) was added with BCC-G in some experiments. The cells were washed twice with PBS and incubated in fresh medium for 24 h before the cells were pulsed with 1 μC/well of ^3H-thimidine for 16 h. Cellular radioactivity in harvested cells was counted on a Topcount scintillation counter and IC50 values were calculated by fitting the data to a sigmoidal dose/response equation.

[2] = test system: EJ human bladder carcinoma cells; assay: In vitro cytotoxicity (3H-thymidine incorporation), EJ; assay type: cell-based
From the text: as §1, §2

[3] = Octanol/water partition coefficient; assay type: physicochemical; conditions: for Po/w (octanol/water partition coefficient): Buffer pH 4.5
Procedure: Octanol/Water Partition Coefficient
[…] One μg of either BQC or BQC-G was added to a mixture of 250 μl octanol and 250 μl of one of the three water based pre-equilibrated solvents. After mixing for 24 h at RT, the samples were centrifuged 20 min at 10,000×g. Samples of the octanol and water layers were analyzed by HPLC.

LS174T = assay: In vitro cytotoxicity (3H-thymidine incorporation), LS174T; assay type: cell-based
Procedure: as §2

CaSki = assay: In vitro cytotoxicity (3H-thymidine incorporation), CaSki; assay type: cell-based
Procedure: as §2

other cancer cell lines = assay: In vitro cytotoxicity, other cancer cell lines; assay type: cell-based
Procedure: as §2

Water solubility = assay type: physicochemical
Procedure: […] Mixtures were centrifuged for 40 min at 20,000 g at room temperature. A sample from the water layer was analyzed by HPLC and quantified using standard curves generated with pure BQC and BQC-G.

[4] = Stability in blood (human plasma/serum, 37° C., 24 h); assay type: in vitro ADME; conditions: 24 h at 37° C.
Procedure: Normal human plasma was spiked with BQC-G to 5 μM. The mixture was incubated 24 h at 37° C. during which time samples were periodically removed and analyzed by SPE-HPLC.

human β-glucuronidase = biological target: T1, human β-glucuronidase (Homo sapiens, UniProt P08236); assay: Hydrolysis of BQC-G by human β-glucuronidase; assay type: biochemical; conditions: low concentrations of human β-glucuronidase
T1 sequence (P08236 23-651): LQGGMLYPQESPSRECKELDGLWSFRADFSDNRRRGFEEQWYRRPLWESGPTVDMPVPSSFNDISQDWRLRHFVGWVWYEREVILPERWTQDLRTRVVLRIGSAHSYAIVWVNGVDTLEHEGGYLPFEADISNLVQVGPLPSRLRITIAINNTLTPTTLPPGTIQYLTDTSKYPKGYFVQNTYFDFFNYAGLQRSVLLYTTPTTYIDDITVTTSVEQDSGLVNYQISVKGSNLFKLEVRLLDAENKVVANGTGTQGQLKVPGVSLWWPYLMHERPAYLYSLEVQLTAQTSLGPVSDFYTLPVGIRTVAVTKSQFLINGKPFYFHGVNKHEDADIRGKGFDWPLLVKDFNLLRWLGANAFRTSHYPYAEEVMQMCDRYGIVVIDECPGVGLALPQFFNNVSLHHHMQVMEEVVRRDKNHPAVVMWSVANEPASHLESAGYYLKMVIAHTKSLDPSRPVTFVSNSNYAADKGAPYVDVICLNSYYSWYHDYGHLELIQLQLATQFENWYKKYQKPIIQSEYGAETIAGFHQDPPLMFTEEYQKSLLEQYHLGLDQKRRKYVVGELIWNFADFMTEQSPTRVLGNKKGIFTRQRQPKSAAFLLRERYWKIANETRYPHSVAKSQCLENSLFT
From the text: Hydrolysis of BQC-G by β-glucuronidase

[5] = Homo sapiens, CL1-5, CL1-5, +HSA (40 mg/ml)
[6] = Homo sapiens, CL1-5, CL1-5, −HSA

Sequence of E. coli β-glucuronidase (P05804 whole entry): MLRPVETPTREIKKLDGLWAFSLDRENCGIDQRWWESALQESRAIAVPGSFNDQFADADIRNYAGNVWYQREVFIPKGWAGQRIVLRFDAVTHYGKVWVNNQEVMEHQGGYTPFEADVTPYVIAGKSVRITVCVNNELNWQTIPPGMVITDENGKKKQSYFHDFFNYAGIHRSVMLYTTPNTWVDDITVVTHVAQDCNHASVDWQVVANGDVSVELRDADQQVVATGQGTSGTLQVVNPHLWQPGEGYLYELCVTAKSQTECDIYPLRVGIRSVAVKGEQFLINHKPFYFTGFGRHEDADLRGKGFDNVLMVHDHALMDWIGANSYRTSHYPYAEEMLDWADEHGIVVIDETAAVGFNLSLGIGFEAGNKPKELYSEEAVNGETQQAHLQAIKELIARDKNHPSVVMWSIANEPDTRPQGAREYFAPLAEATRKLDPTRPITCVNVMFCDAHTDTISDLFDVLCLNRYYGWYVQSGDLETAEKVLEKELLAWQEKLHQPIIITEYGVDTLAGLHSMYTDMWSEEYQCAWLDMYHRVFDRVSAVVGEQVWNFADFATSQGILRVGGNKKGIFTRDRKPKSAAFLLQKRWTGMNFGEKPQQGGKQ

Cc1cc(=O)oc2cc(O[C@@H]3O[C@H](C(=O)O)[C@@H](O)[C@H](O)[C@H]3O)ccc12 [4-MUG, 4-methylumbelliferyl-β-D-glucuronide]
Kcat (E. coli β-glucuronidase): 22.2 s⁻¹
Km (E. coli β-glucuronidase): 80.2 ± 12.4 µM

CC[C@@]1(O)C(=O)OCc2c1cc1n(c2=O)Cc2cc3c(N)cccc3nc2-1 [9AC, 9-amino-camptothecin]
Cytotoxicity Ratio (IC50 in the presence of HSA to IC50 without HSA) [1]: 140
effect of HSA on cytotoxicity [1]: profound decrease in cytotoxicity
IC50 ([1]; CL1-5, +HSA (40 mg/ml)): 1370 ± 70 nM
IC50 ([1]; CL1-5, −HSA): 9.8 ± 0.3 nM

CC[C@@]1(O)C(=O)OCc2c1cc1n(c2=O)Cc2cc3c(NC(=O)OCc4ccc(O[C@@H]5O[C@H](C(=O)O)[C@@H](O)[C@H](O)[C@H]5O)cc4)cccc3nc2-1 [9ACG, 9-amino-camptothecin-glucuronide]
Kcat (E. coli β-glucuronidase): 8.6 s⁻¹
Km (E. coli β-glucuronidase): 30 µM
Cytotoxicity Ratio (IC50 in the presence of HSA to IC50 without HSA) [1]: >15
IC50 ([1]; CL1-5, +HSA (40 mg/ml)): > 10000 nM
IC50 ([1]; CL1-5, −HSA): 650 ± 40 nM

CC[C@@]1(O)C(=O)OCc2c1cc1n(c2=O)Cc2c-1nc1ccc(O)c3c1c2CCC3 [BQC, 5,6-dihydro-4H-benzo[de]quinoline-camptothecin]
IC50 [2]: 1.78 ± 0.08 nM
Po/w (octanol/water partition coefficient) [3]: 1.67
Po/w ([3]; Buffer pH 7.4): 1.46
Po/w ([3]; water): 1.98
Cytotoxicity Ratio (IC50 in the presence of HSA to IC50 without HSA) ([1]; CL1-5): 9.5
IC50 ([1]; CL1-5, +HSA (40 mg/ml)): 13 nM
IC50 ([1]; CL1-5, −HSA): 1.4 nM and 1.37 nM
IC50 (LS174T): 1.31 ± 0.03 nM
IC50 (CaSki): 1.25 ± 0.05 nM
IC50 (other cancer cell lines): 1 to 2 nM
Solubility (Water solubility; Buffer pH 4.5): 0.120 µg/mL (≈ 0.297 µM)
Solubility (Water solubility; Buffer pH 7.0): 0.200 µg/mL (≈ 0.495 µM)
solubility in water-based buffers (Water solubility; pH 4.5): 125 ng/mL (≈ 0.309 µM)
solubility in water-based buffers (Water solubility; pH 7.0): 200 ng/mL (≈ 0.495 µM)
Solubility (Water solubility; water): 0.200 µg/mL (≈ 0.495 µM)

CC[C@@]1(O)C(=O)OCc2c1cc1n(c2=O)Cc2c-1nc1ccc(OCc3ccc(O[C@@H]4O[C@H](C(=O)O)[C@@H](O)[C@H](O)[C@H]4O)c([N+](=O)[O-])c3)c3c1c2CCC3 [BQC-G]
Kcat (E. coli β-glucuronidase): 45.1 s⁻¹
Km (E. coli β-glucuronidase): 4.6 µM
hydrolysis to the parental aglycone BQC (E. coli β-glucuronidase; low concentrations of E. coli β-glucuronidase): completely hydrolyzed
IC50 [2]: 44.8 ± 0.7 nM
Po/w (octanol/water partition coefficient) [3]: −0.44
Po/w ([3]; Buffer pH 7.4): −1.01
octanol/water partition coefficient ([3]; pH not stated (discussion)): about −1
Po/w ([3]; water): −0.44
Cytotoxicity Ratio (IC50 in the presence of HSA to IC50 without HSA) ([1]; CL1-5): 18.4
IC50 ([1]; CL1-5, +HSA (40 mg/ml)): 1080 nM
IC50 ([1]; CL1-5, in the presence of HSA, hydrolyzed by β-glucuronidase): 13 nM
IC50 ([1]; CL1-5, without HSA, β-glucuronidase added): 1.3 nM
IC50 ([1]; CL1-5, −HSA): 58 nM and 58.7 nM
IC50 (LS174T): 24.6 ± 2.8 nM
IC50 (CaSki): 31.2 ± 0.5 nM
stability in human serum [4]: only trace amounts of BQC detected
hydrolysis to the parental aglycone BQC (human β-glucuronidase): completely hydrolyzed
Solubility (Water solubility; Buffer pH 7.0): 775 µg/mL (≈ 1060 µM)
solubility in water based buffers (Water solubility; pH 7.0): 775 µg/mL (≈ 1060 µM)
solubility in water based buffers relative to BQC (Water solubility; versus BQC): about 4000 fold

CC[C@@]1(O)C(=O)OCc2c1cc1n(c2=O)Cc2cc3ccccc3nc2-1 [CPT, camptothecin]
IC50 ([2]; Homo sapiens): 21 ± 3.9 nM
Cytotoxicity Ratio (IC50 in the presence of HSA to IC50 without HSA) ([1]; CL1-5): >146
effect of HSA on cytotoxicity ([1]; CL1-5, in the presence of HSA): drastically reduced
IC50 [1, 5]: > 3000 nM
IC50 [1, 6]: 20.5 ± 1.3 nM
IC50 (LS174T; Homo sapiens): 9.7 ± 0.8 nM
IC50 (CaSki; Homo sapiens, Ca-Ski): 20 ± 2.1 nM

O=C(O)[C@H]1O[C@@H](Oc2ccc([N+](=O)[O-])cc2)[C@H](O)[C@@H](O)[C@@H]1O [PNPG, p-nitrophenol β-D-glucuronide]
Kcat (E. coli β-glucuronidase): 173 s⁻¹
Km (E. coli β-glucuronidase): 490 ± 84 µM

CCc1c2c(nc3ccc(O)cc13)-c1cc3c(c(=O)n1C2)COC(=O)[C@]3(O)CC [SN-38]
Cytotoxicity Ratio (IC50 in the presence of HSA to IC50 without HSA) [1]: 9.1
IC50 ([1]; CL1-5, +HSA (40 mg/ml)): 47.9 ± 1.9 nM
IC50 ([1]; CL1-5, −HSA): 5.25 ± 0.08 nM

CC[C@@]1(O)C(=O)OCc2c1cc1n(c2=O)Cc2cc3c(CN(C)C)c(O)ccc3nc2-1 [topotecan]
IC50 [1, 5]: 28.4 ± 0.7 nM
IC50 [1, 6]: 27.8 ± 0.3 nM
